According to article PMC8648968 (The FEBS journal, 2021):
Entries after “also recorded” stand apart in the source; their conditions may differ. Values belong to the molecule of their own block, whether it stands above or below them. Where no end group is shown, it is not given here. [ ]: non-standard residue; d: D form. pS = N[C@@H](COP(=O)(O)O)C(=O)O

Columns and labels:
HCE cells = assay: Hst1 localization by immunofluorescence after DTG pretreatment; format: cell-based, human; details: pretreatment with escalating concentrations of DTG (Fig. S4)
TMEM97 (108-176) = assay: Circular dichroism, secondary structure on mixing with TMEM97; format: binding; details: CD, pH 7.4, 0.05% DDM, room temperature
[1] = biological target: synthetic TMEM97 (108-176) (Homo sapiens, UniProt Q5BJF2); assay: SPR, synthetic TMEM97; format: binding; details: Biacore 8K, pH 7.4, 25 °C
full-length TMEM97 = full-length TMEM97 (Homo sapiens, UniProt Q5BJF2); assay: SPR, recombinant full-length TMEM97; format: binding; details: Biacore 8K, pH 7.4, 25 °C
GST-TMEM97 (108-176) = GST-TMEM97 (108-176) (Homo sapiens, UniProt Q5BJF2); assay: SPR, recombinant GST-TMEM97; format: binding; details: Biacore 8K, pH 7.4, 25 °C
HSC70 = details: cited from earlier work
[2] = Circular dichroism, secondary structure of peptide alone in solution; format: physicochemical; details: CD, TMEM97 (108-176) alone, pH 7.4, 0.05% DDM, room temperature, DichroWeb
[3] = biological target: TMEM97 (S2R) overexpressed in HEK293T cell membranes (UniProt Q5BJF2 1-176); assay: radioligand binding
[4] = biological target: Recombinant GST-TMEM97 (108-176) (UniProt Q5BJF2 108-176); assay: SPR
[5] = biological target: T1, Synthetic TMEM97 (108-176); assay: SPR
T1 peptide: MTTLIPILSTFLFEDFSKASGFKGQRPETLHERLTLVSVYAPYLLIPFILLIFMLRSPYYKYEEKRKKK

[6] = biological target: Recombinant full-length TMEM97 (Sigma-2 receptor) (UniProt Q5BJF2 1-176); assay: SPR

Sequence of full-length TMEM97 (Q5BJF2 whole entry): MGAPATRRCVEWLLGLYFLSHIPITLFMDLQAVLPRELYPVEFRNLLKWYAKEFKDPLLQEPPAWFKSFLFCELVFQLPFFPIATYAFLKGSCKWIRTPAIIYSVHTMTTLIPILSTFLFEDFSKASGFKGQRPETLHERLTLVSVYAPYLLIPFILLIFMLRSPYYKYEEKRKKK

Molecule: Cc1ccccc1NC(=N)Nc1ccccc1C [DTG, 1,3-di-o-tolylguanidine]
Effect on Hst1 localization (HCE cells): Hst1 localization is reduced by pretreatment with DTG

Molecule: Hst3: histatin-3, histatin family peptide cited from Imamura et al. (DSHAKRHHGYKRKFHEKHHSHRGYRSNYLYDN; Histatin-3; UniProt P15516 20-51, looked up)
Interaction with HSC70 (HSC70): interact with, but not clearly directly bind

Continued, in another order:

Binding by SPR (in words) [1]: did not bind
Molecule: HYHKFHRYYDPGSNLYKEHNHGFHHGYKDEFRREpSRDS [Hst1SP]
Change of secondary structure on mixing with TMEM97 (108-176) (TMEM97 (108-176)): did not induce increased secondary structural features; also recorded: did not induce increased secondary structural elements
Binding by SPR (in words) (full-length TMEM97): did not exhibit binding; also recorded: unable to bind
Binding by SPR (in words) (GST-TMEM97 (108-176)): did not exhibit binding; also recorded: unable to bind

Turns content [2]: 14%
Unordered content [2]: 17%
β-strand content [2]: 23%
Molecule: MTTLIPILSTFLFEDFSKASGFKGQRPETLHERLTLVSVYAPYLLIPFILLIFMLRSPYYKYEEKRKKK [TMEM97 (108-176)]

Ki [3]: 0.239 µM
Kd [4]: 6.6 µM
Kd [5]: 6.3 µM
Kd [6]: 5.3 µM
Molecule: D[pS]HEKRHHGYRRKFHEKHHSHREFPFYGDYGSNYLYDN [Histatin-1 (Hst1)]
